Molecules are shown by their SMILES. Activity calls are given as the source filed them. The rule behind the calls is not given here.

For experiment [1], the system named is MV4-11. Put plainly: cells. The following applies: Homo sapiens, MV4-11, 72 h.
Description: Antiproliferative activity against human MV4-11 cells harboring FLT3-ITD mutant after 72 hrs by MTT assay
The subject of another experiment is K562. Put plainly: cells. To be noted: Homo sapiens, K562, 72 h.
For another experiment, the system named is WI-38. As to the kind of experiment: cells. To be noted: Homo sapiens, WI-38, 72 h.
In experiment [2] the target is T1, Receptor-type tyrosine-protein kinase FLT3 (Homo sapiens, UniProt P36888).
T1 sequence (P36888 whole entry): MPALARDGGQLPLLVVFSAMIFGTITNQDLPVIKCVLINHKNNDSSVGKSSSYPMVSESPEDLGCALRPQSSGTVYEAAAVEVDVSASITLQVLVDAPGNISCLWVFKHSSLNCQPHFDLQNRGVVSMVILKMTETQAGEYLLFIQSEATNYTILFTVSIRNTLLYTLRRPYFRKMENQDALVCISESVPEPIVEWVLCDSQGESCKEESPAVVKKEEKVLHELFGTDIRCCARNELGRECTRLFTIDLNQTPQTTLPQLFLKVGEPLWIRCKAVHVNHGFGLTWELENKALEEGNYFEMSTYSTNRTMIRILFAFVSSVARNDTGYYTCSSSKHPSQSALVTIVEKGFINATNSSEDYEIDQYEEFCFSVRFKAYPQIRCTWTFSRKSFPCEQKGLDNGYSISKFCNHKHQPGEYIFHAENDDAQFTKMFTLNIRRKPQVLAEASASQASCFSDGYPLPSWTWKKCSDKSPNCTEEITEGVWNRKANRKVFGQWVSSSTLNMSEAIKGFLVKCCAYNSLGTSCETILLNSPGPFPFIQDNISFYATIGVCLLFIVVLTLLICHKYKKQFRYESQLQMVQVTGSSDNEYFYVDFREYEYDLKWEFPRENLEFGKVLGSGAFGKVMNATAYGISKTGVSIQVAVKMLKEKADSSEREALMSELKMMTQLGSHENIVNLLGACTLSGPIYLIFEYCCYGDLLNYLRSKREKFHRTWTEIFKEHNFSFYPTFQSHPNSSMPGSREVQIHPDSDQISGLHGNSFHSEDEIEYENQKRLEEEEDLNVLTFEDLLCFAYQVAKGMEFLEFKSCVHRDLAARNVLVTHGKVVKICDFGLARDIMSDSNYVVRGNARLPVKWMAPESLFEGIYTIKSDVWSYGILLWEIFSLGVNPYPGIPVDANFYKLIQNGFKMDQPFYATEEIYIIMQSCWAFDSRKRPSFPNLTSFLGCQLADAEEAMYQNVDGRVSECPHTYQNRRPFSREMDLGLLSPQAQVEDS
Description: Inhibition of human N-terminal GST-tagged FLT3 (564 to 993 residues) expressed in baculovirus expression system using peptide FAM-P2 as substrate incubated for 10 mins followed by substrate addition by mobility shift assay

Experiment [3] addresses Receptor-type tyrosine-protein kinase FLT3 (Homo sapiens) (UniProt P36888). Put plainly: Inhibition of FLT3 (unknown origin) at 10 uM.
The target is the same in experiment [4]. Put plainly: Inhibition of FLT3 (unknown origin) at 1 uM.
Experiment [5] deals with MV4-11. As to the kind of experiment: Induction of apoptosis in human MV4-11 cells at 1000 nM after 48 hrs by annexin V/propidium iodide staining based FACS analysis. The format is functional, cell-based.
Experiment [6] relates to MV4-11. Put plainly: Cell cycle arrest in human MV4-11 cells at 1000 nM after 48 hrs by PI/RNase staining based FACS analysis. The format is functional.

Description for K562: Antiproliferative activity against FLT3-deficient human K562 cells after 72 hrs by MTT assay
Description for WI-38: Antiproliferative activity against human WI38 cells after 72 hrs by SRB assay

Turning to `CN1CCN(c2ccc(Nc3ncc4ncc(=O)n(-c5ccc(CN)cc5)c4n3)cc2)CC1`, the values for the IC50 with MV4-11 [1], with K562 and in the experiment on WI-38 were 0.326 µM, 9.96 µM and above 10 µM, respectively.
Turning to `COc1ccc(Nc2ncc3ncc(=O)n(-c4ccc(NS(C)(=O)=O)cc4)c3n2)cc1`, the IC50 is 2.94 µM in the experiment on MV4-11 [1], above 10 µM in the experiment on K562 and above 10 µM in the experiment on WI-38.
For the compound `COc1ccc(Nc2ncc3ncc(=O)n(-c4ccc(N)cc4)c3n2)cc1Cl`, the values for the IC50 with MV4-11 [1], in the experiment on K562 and with WI-38 were 1.95 µM, above 10 µM and above 10 µM, respectively.
On to `CC(=O)Nc1ccc(-n2c(=O)cnc3cnc(Nc4ccc(N5CCN(C)CC5)cc4)nc32)cc1`, for which the half-maximal inhibitory concentration (IC50) with MV4-11 [1] is 0.415 µM; in the experiment with K562, above 10 µM; in the experiment with WI-38 it was above 10 µM.
Regarding `C=CC(=O)Nc1cccc(-n2c(=O)cnc3cnc(Nc4ccc(N(CC)CC)cc4)nc32)c1`, the half-inhibitory concentration (IC50) in experiment [2] is 1.06 µM; with MV4-11 [1], 5.56 µM; in the experiment on K562 it was above 10 µM; in the experiment on WI-38, above 10 µM.
For the compound `C=CC(=O)Nc1cccc(-n2c(=O)cnc3cnc(Nc4ccc(Cl)cc4)nc32)c1`, the IC50 in experiment [2] is 3.59 µM; in the experiment on MV4-11 [1] it was 4.04 µM; in the experiment on K562, above 10 µM; in the experiment with WI-38 it was above 10 µM.
Take `C=CC(=O)Nc1cccc(-n2c(=O)cnc3cnc(Nc4ccc(N5CCCCC5)cc4)nc32)c1`: the IC50 in experiment [2] is 1.75 µM; in the experiment with MV4-11 [1], above 10 µM; in the experiment with K562, above 10 µM; with WI-38 it was above 10 µM.
With `C=CC(=O)Nc1cccc(-n2c(=O)cnc3cnc(Nc4ccc(NC(C)=O)cc4)nc32)c1`, the IC50 in experiment [2] was 5.45 µM; with MV4-11 [1], 7.38 µM; in the experiment on K562 it was above 10 µM; with WI-38 it was above 10 µM.
Take `C=CC(=O)Nc1cccc(-n2c(=O)cnc3cnc(Nc4ccccc4)nc32)c1`: the IC50 is 2.92 µM in experiment [2], 5.51 µM in the experiment on MV4-11 [1], above 10 µM with K562 and above 10 µM in the experiment on WI-38.
Regarding `CN1CCN(c2ccc(Nc3ncc4ncc(=O)n(-c5cccc(N)c5)c4n3)cc2)CC1`, the half-inhibitory concentration (IC50) in the experiment with MV4-11 [1] was 0.383 µM; in the experiment on K562 it was above 10 µM; with WI-38, above 10 µM.
Turning to `C=CC(=O)Nc1cccc(-n2c(=O)cnc3cnc(Nc4ccc(CC(N)=O)cc4)nc32)c1`, the 50% inhibitory concentration (IC50) in the experiment on MV4-11 [1], with K562 and in the experiment on WI-38 was above 10 µM each time.
Consider `COc1cc2c(N3CCN(C(=O)Nc4ccc(OC(C)C)cc4)CC3)ncnc2cc1OCCCN1CCCCC1` [TANDUTINIB], for which the IC50 was 0.302 µM with MV4-11 [1], above 10 µM in the experiment with K562 and above 10 µM in the experiment with WI-38.
With `COc1ccc(Nc2ncc3ncc(=O)n(-c4cccc(N)c4)c3n2)cc1`, the IC50 in experiment [2] was 0.034 µM; with MV4-11 [1], 3.49 µM; in the experiment with K562, above 10 µM; with WI-38, above 10 µM.
Regarding `CN1CCN(c2ccc(Nc3ncc4ncc(=O)n(-c5ccc(N)cc5)c4n3)cc2F)CC1`, the figures for the IC50 in the experiment on MV4-11 [1], with K562 and in the experiment with WI-38 were 1.42 µM, above 10 µM and above 10 µM, respectively.
Consider `C=CC(=O)Nc1cccc(-n2c(=O)cnc3cnc(Nc4ccc(N5CCN(C)CC5)cc4)nc32)c1`, for which the values for the inhibition in experiment [3] and in experiment [4] were 99% and 82%, respectively. For the same compound, the IC50 was 0.312 µM in experiment [2], 0.792 µM in the experiment with MV4-11 [1], above 10 µM in the experiment with K562 and above 10 µM in the experiment with WI-38.
On to `CN1CCN(c2ccc(Nc3ncc4ncc(=O)n(-c5ccc(N)cc5)c4n3)cc2Cl)CC1`, for which the IC50 was 0.098 µM in the experiment on MV4-11 [1], above 10 µM in the experiment with K562 and 3.49 µM with WI-38.
Take `C=CC(=O)Nc1ccc(-n2c(=O)cnc3cnc(Nc4ccc(N5CCN(C)CC5)cc4)nc32)cc1`: the IC50 in experiment [2] was 0.047 µM; in the experiment on MV4-11 [1], 0.835 µM; in the experiment with K562 it was above 10 µM; with WI-38, above 10 µM.
Regarding `C=CC(=O)Nc1cccc(-n2c(=O)cnc3cnc(Nc4ccc(N5CCCC5)cc4)nc32)c1`, the half-maximal inhibitory concentration (IC50) in experiment [2] is 1.53 µM; in the experiment on MV4-11 [1] it was above 10 µM; in the experiment on K562, above 10 µM; in the experiment on WI-38, above 10 µM.
Regarding `CN1CCN(c2ccc(Nc3ncc4ncc(=O)n(-c5ccc(NS(C)(=O)=O)cc5)c4n3)cc2)CC1`, the IC50 is 1.15 µM in the experiment on MV4-11 [1], above 10 µM with K562 and above 10 µM in the experiment with WI-38.
As for `COc1ccc(Nc2ncc3ncc(=O)n(-c4cccc(NC(=O)/C=C/CN(C)C)c4)c3n2)cc1`, the concentration for half-maximal inhibition (IC50) in the experiment with MV4-11 [1] was 2.72 µM; in the experiment on K562, above 10 µM; with WI-38 it was above 10 µM.
Consider `C=CC(=O)Nc1ccc(-n2c(=O)cnc3cnc(Nc4ccc(N5CCOCC5)cc4)nc32)cc1`, for which the half-maximal inhibitory concentration (IC50) in experiment [2] was 0.173 µM; in the experiment with MV4-11 [1], 3.49 µM; in the experiment with K562 it was above 10 µM; in the experiment with WI-38, above 10 µM.
With `CN1CCN(c2ccc(Nc3ncc4ncc(=O)n(-c5ccc(N)cc5)c4n3)cc2)CC1`, the outcome in the experiment with MV4-11 [5] and with MV4-11 [6] was Active. In addition, the IC50 in the experiment with MV4-11 [1] was 0.297 µM; in the experiment with K562, above 10 µM; with WI-38, above 10 µM.
On to `C=CC(=O)Nc1cccc(-n2c(=O)cnc3cnc(Nc4ccc(N5CCN(C)CC5)cc4OC)nc32)c1`, for which the 50% inhibitory concentration (IC50) was 1.32 µM in experiment [2], 2.89 µM in the experiment with MV4-11 [1], above 10 µM in the experiment with K562 and 8.24 µM with WI-38.
`CN1CCN(c2ccc(Nc3ncc4ncc(=O)n(-c5ccc(N6CCNCC6)cc5)c4n3)cc2)CC1`: the half-maximal inhibitory concentration (IC50) is 0.168 µM in the experiment on MV4-11 [1], above 10 µM in the experiment with K562 and above 10 µM in the experiment with WI-38.
In the case of `C=CC(=O)Nc1ccc(-n2c(=O)cnc3cnc(Nc4ccccc4)nc32)cc1`, the IC50 in experiment [2] is 0.165 µM; in the experiment with MV4-11 [1] it was above 10 µM; in the experiment on K562, above 10 µM; in the experiment on WI-38, above 10 µM.
`C=CC(=O)Nc1ccc(-n2c(=O)cnc3cnc(Nc4ccc(N5CCN(C)CC5)cc4OC)nc32)cc1`: the IC50 in experiment [2] is 0.153 µM; in the experiment on MV4-11 [1], 0.814 µM; with K562, above 10 µM; in the experiment on WI-38 it was above 10 µM.
Regarding `COc1ccc(Nc2ncc3ncc(=O)n(-c4ccc(N)cc4)c3n2)cc1`, the IC50 in experiment [2] was 0.029 µM; in the experiment on MV4-11 [1], 6.89 µM; in the experiment on K562, above 10 µM; in the experiment with WI-38, above 10 µM.
`COc1ccc(Nc2ncc3ncc(=O)n(-c4ccc(NC(C)=O)cc4)c3n2)cc1`: the figures for the IC50 with MV4-11 [1], with K562 and with WI-38 were 3.88 µM, above 10 µM and above 10 µM, respectively.
Regarding `COc1ccc(Nc2ncc3ncc(=O)n(-c4ccc(NC(=O)/C=C/CN(C)C)cc4)c3n2)cc1`, the IC50 is 0.184 µM in experiment [2], 2.17 µM in the experiment on MV4-11 [1], above 10 µM in the experiment with K562 and above 10 µM in the experiment with WI-38.
As to `COc1cc(Nc2ncc3ncc(=O)n(-c4ccc(N)cc4)c3n2)ccc1N1CCN(C)CC1`, the values for the IC50 in the experiment with MV4-11 [1], in the experiment with K562 and in the experiment on WI-38 were 0.093 µM, above 10 µM and above 10 µM, respectively.
On to `C=CC(=O)Nc1ccc(-n2c(=O)cnc3cnc(Nc4ccc(Cl)cc4)nc32)cc1`, for which the IC50 is 0.384 µM in experiment [2], above 10 µM in the experiment with MV4-11 [1], above 10 µM in the experiment on K562 and above 10 µM in the experiment with WI-38.
Turning to `COc1ccc(Nc2ncc3ncc(=O)n(-c4ccc(N)cc4)c3n2)c(C)c1`, the IC50 in the experiment with MV4-11 [1] was 6.04 µM; with K562, above 10 µM; with WI-38, above 10 µM.
Take `C=CC(=O)Nc1cccc(-n2c(=O)cnc3cnc(Nc4ccc(OC)cc4)nc32)c1`: the half-inhibitory concentration (IC50) in experiment [2] is 1.87 µM; in the experiment with MV4-11 [1], 2.61 µM; in the experiment with K562, above 10 µM; with WI-38, 8.71 µM.
On the same counts, the results for `C=CC(=O)Nc1ccc(-n2c(=O)cnc3cnc(Nc4ccc(OC)cc4)nc32)cc1` are 0.108 µM, 3.81 µM, above 10 µM and above 10 µM.
In the same order, the values of `C=CC(=O)Nc1cccc(-n2c(=O)cnc3cnc(Nc4ccc(N5CCOCC5)cc4)nc32)c1` are 1.14 µM, above 10 µM, above 10 µM and above 10 µM.

These data come from ChEMBL document CHEMBL4477208, “Discovery and Rational Design of Pteridin-7(8H)-one-Based Inhibitors Targeting FMS-like Tyrosine Kinase 3 (FLT3) and Its Mutants” (J Med Chem, 2016).
